Assay results published in patent US10889748B2, “Process for preparing dibenzylamine quaternary ammonium salt high-temperature resistant corrosion inhibitor and applications thereof” (Southwest Petroleum University, priority 2018, dated 2021).

Experiments:
[1] = 4 h corrosion test at 90° C. in 20% hydrochloric acid; conditions: P110 carbon steel, 1000 ppm inhibitor
Protocol: The corrosion inhibition performance of corrosion inhibitors in the embodiments 1 to 4 is determined by a 4 h corrosion test at 90° C. using 20% hydrochloric acid as a corrosive medium and P110 carbon steels. The amount of corrosion inhibitors is 1000 ppm.

[2] = Determination of water solubility of corrosion inhibitors in 20% hydrochloric acid solution; assay type: physicochemical; conditions: 0.1 g corrosion inhibitor in 200 mL of 20% hydrochloric acid solution
Protocol: (§1) The process is as follows: weigh […] of the corrosion inhibitor of the present invention, and dissolve in 200 mL of 20% hydrochloric acid solution, respectively, stir and observe its dissolution. Prepare 20% hydrochloric acid solution system adding with iron ion stabilizer citric acid, clay stabilizer potassium chloride and discharge aiding agent OP-10 or fluorocarbon surfactant, respectively, and then weigh 0.1 g of the corrosion inhibitor of the present invention and add them to the 20% hydrochloric acid solution system, to observe the compatibility.

[3] = Compatibility with 20% hydrochloric acid system containing iron ion stabilizer, clay stabilizer and discharge aiding agent; assay type: physicochemical; conditions: 0.1 g in 20% hydrochloric acid system with citric acid, potassium chloride and OP-10 or fluorocarbon surfactant; 90° C.
Protocol: as §1, with “The water solubility of the corrosion inhibitor prepared by Embodiments 1 to 4 and its compatibility with the system containing the iron ion stabilizer, clay stabilizer and discharge aiding agent under 90° C. are determined. The” for “The”

| Compatibility [3] | SMILES | Corrosion rate [1] [gm^−2h^−1] | Inhibition rate [1] [%] | Water solubility and appearance [2] |
| --- | --- | --- | --- | --- |
| Uniform and transparent, | OC(C[N+]1(Cc2ccc3ccccc3c2)CCOCC1)C[N+](Cc1ccccc1)(Cc1ccccc1)Cc1ccc2ccccc2c1 (stereo not drawn) [Embodiment 1] | 34.87 | 95.18 | Soluble colorless |
| Uniform and transparent, | OC(C[N+](Cc1ccccc1)(Cc1ccccc1)Cc1ccccc1)C[N+]1(Cc2ccccc2)C=Cc2ccccc21 (stereo not drawn) [Embodiment 2] | 45.79 | 93.68 | Soluble colorless |
| Uniform and transparent, | CCCCCC[N+](Cc1ccccc1)(Cc1ccccc1)CC(O)C[N+](CCCCCC)(Cc1ccccc1)CC(O)C[N+](CCCCCC)(Cc1ccccc1)Cc1ccccc1 (stereo not drawn) [Embodiment 3] | 29.86 | 95.88 | Soluble colorless |
